Data from patent US20220304309A1, “IRON COMPLEXES AND USES THEREFOR” (priority 2019, published 2022).
“Also recorded” adds a separate entry of the source. Read-outs that look alike come from different tables or passages of the source.

What was measured:
[1] = Fenton activity test with H2O2 and methylene blue
[2] = Total, ferrous and ferric iron content of the complexes immediately after preparation (1,10-phenanthroline); conditions: 50 mM solution; for Ferric iron: total minus ferrous
[3] = system: Pectobacterium carotovorum subsp. brasiliense (Pcb); test: In planta trial on Pcb-infiltrated potato tubers; conditions: weekly foliar spray or root drench
[4] = Stability of ferrous iron complexes in solution over 180 days; conditions: for Ferrous iron / Total iron: room temperature in the dark; for Stability of solutions of the complex: stored at ambient temperature (TFDC in the dark)
spores of B. subtilis = test: Decontamination of surfaces contaminated with B. subtilis spores; format: cell-based, Bacillus subtilis; conditions: swabbing or spraying, optionally mixed with ascorbate and/or hydrogen peroxide
Protocol: In additional experiments, surfaces that have been intentionally contaminated with spores of B. subtilis are wiped or sprayed with solutions of FDP (e.g., 1 mM, 2 mM, 3 mM, 4 mM, 5 mM, 6 mM, 7 mM, 8 mM, 9 mM, 10 mM, 12.5 mM, 15 mM, 20 mM, 25 mM, 50 mM, 75 mM 100 mM or more); optionally including ascorbate (e.g. 10 mM) and/or hydrogen peroxide at a concentration of, e.g., 1 mM or less, 2 mM or less, 3 mM or less, 4 mM or less, 5 mM or less, 6 mM or less, 7 mM or less, 8 mM or less, 9 mM or less, 10 mM or less, 12.5 mM or less, 15 mM or less, 20 mM or less, 25 mM or less, 30 mM or less, 40 mM or less, 50 mM or less, 60 mM or less, 70 mM or less, 80 mM or less, 90 mM or less, 100 mM or less, 125 mM or less, 150 mM or less, 175 mM or less, or 200 mM or less. The surfaces are then swabbed, the swabs are suspended in water or medium, and CFU are determined by plating aliquots of serial dilutions of the liquid in which the swabs were suspended.

C. liberibacter spp = format: in vivo, rough lemon trees; conditions: 50 μM, foliar or root drench, every three days over three months
X. campestris = conditions: for A600: 36 hours at 28° C.
Bacillus subtilis = test: Bactericidal and sporicidal activity on Bacillus subtilis cells or spores suspended in water; format: cell-based; conditions: increasing concentrations and exposure times; 10 mM sodium ascorbate, sub-inhibitory hydrogen peroxide
Protocol: Because of its activity as a Fenton reagent, FDP produces reactive oxygen species (e.g. hydroxyl radicals, superoxide radicals) that are toxic to bacterial spores and spore-forming bacteria. […] After exposure to FDP for various periods of time, the number of viable colony-forming units is determined by plating aliquots of serial dilutions of the solutions.

[5] = Reduction of ferric iron in the ferric tri-pyruvate complex over 10 days; format: physicochemical
Protocol: A 50 mM solution of the ferric tri-pyruvate complex was prepared as described in Example 5. The stability of the complex was measured by determining the total iron, ferrous iron and ferric iron over the course of 10 days.

[6] = 1 ml 50 mM complex + 1 ml 40% H2O2, 0.1% (w/v) methylene blue, 1 hour at ambient temperature
[7] = 60 Days after complex formation
[8] = 180 Days after complex formation
[9] = 0 days after complex formation, 50 mM solution
[10] = 1 day after complex formation, 50 mM solution
[11] = 7 days after complex formation, 50 mM solution
[12] = 10 days after complex formation, 50 mM solution

mono-ferrous di-citrate [mono-ferrous di-citrate complex, reference compound]
Fenton activity (loss of blue color, brown precipitate) [1, 6]: little to no Fenton activity

O=C([O-])CC(O)(CC(=O)[O-])C(=O)[O-].O=C([O-])CC(O)(CC(=O)[O-])C(=O)[O-].[Fe+2].[Fe+2].[Fe+2] [tri-ferrous di-citrate]
Ferrous iron [2]: 49.7 mM | Total iron [2]: 50 mM | Ferric iron [2]: <1 mM | Symptoms of Pcb infection in potato plants [3]: reduce symptom of Pcb infection | Light sensitivity on storage [4]: must be stored in the dark to prevent autodegradation | Ferrous iron ([4]; 1 Day after complex formation): 100 mM | Total iron ([4]; 1 Day after complex formation): 100 mM | Ferrous iron [4, 7]: 99 mM | Total iron [4, 7]: 100 mM | Ferrous iron [4, 8]: 98 mM | Total iron [4, 8]: 100 mM | Stability of solutions of the complex [4]: stable for up to six months | Fenton activity (loss of blue color, brown precipitate) [1, 6]: exhibited Fenton activity | Fenton activity (loss of blue color, brown precipitate) ([1]; 1 ml 50 mM complex + 1 ml 40% H2O2, 0.1% (w/v) methylene blue, 1 hour at ambient temperature, listed as tri-ferrous di-citrate complex): significant Fenton activity

ferrous di-pyruvate
Ferrous iron [2]: 49.5 mM | Total iron [2]: 50 mM | Ferric iron [2]: <1 mM | Sterilization of surfaces contaminated with B. subtilis spores (spores of B. subtilis): sterilizes the surfaces | Number of leaf and root samples containing C. liberibacter spp nucleic acid (PCR) (C. liberibacter spp): reduces the number of leaf and root samples containing C. liberibacter spp nucleic acid | Number of plants showing signs of chlorosis (C. liberibacter spp): reduces the number of plants showing signs of chlorosis | Symptoms of Pcb infection in potato plants [3]: reduce symptom of Pcb infection | Ferrous iron ([4]; 1 Day after complex formation): 99 mM | Total iron ([4]; 1 Day after complex formation): 100 mM | Ferrous iron [4, 7]: 97 mM | Total iron [4, 7]: 100 mM | Ferrous iron [4, 8]: 98 mM | Total iron [4, 8]: 100 mM | Stability of solutions of the complex [4]: stable for up to six months | Effect on growth of X. campestris (in words) (X. campestris; Table 5, most pronounced after preincubation with ascorbate and copper): able to block the growth of X. campestris | Killing of X. campestris (in words) (X. campestris; Table 6, most pronounced after preincubation with ascorbate and copper): able to kill X. campestris | CFU (X. campestris; no preincubation, addition 5 mM ascorbate + 5 μM Cu(II) + 0.25 mM FDP, 36 hour treatment): 2.28 × 10^9 CFU per ml | A600 (X. campestris; no preincubation, addition 5 mM ascorbate + 5 μM Cu(II) + 0.25 mM FDP): 0.420 | A600 (X. campestris; no preincubation, addition 5 mM ascorbate + 0.25 mM FDP): 0.447 | Cell killing of B. subtilis cells or spores (viable CFU) (Bacillus subtilis): higher levels of cell killing | Fenton activity (loss of blue color, brown precipitate) [1, 6]: exhibited Fenton activity | Fenton activity (loss of blue color, brown precipitate) ([1]; 1 ml 50 mM complex + 1 ml 40% H2O2, 0.1% (w/v) methylene blue, 1 hour at ambient temperature, listed as ferrous di-pyruvate complex): significant Fenton activity

ferric tri-pyruvate [ferric tri-pyruvate complex]
Ferric iron [5, 9]: >49 mM | Ferrous iron [5, 9]: <1 mM | Total iron [5, 9]: 50 mM | Oxidation state of the iron upon formation of the complex ([5]; 50 mM solution): essentially all the iron was in the ferric oxidation state | Ferric iron [5, 10]: 39 mM | Ferrous iron [5, 10]: 11 mM | Total iron [5, 10]: 50 mM | Ferric iron [5, 11]: 2 mM | Ferrous iron [5, 11]: 48 mM | Total iron [5, 11]: 50 mM | Ferric iron [5, 12]: 2 mM | Ferrous iron [5, 12]: 48 mM | Total iron [5, 12]: 50 mM | Reduction of ferric ions to ferrous ([5]; after one week (7-day period)): essentially all iron is in the ferrous oxidation state; also recorded: essentially all the ferric iron was reduced to the ferrous oxidation state | Reduction of ferric ions to ferrous ([5]; within one day after formation of the complex, ambient conditions): approximately one-fifth of ferric ions have been reduced to ferrous | Fenton activity (loss of blue color, brown precipitate) ([1]; 14-day old reduced complex, 50 mM + 40% H2O2, 1 hour at ambient temperature): significant Fenton activity

mono-ferrous mono-citrate [mono-ferrous mono-citrate complex, reference compound]
Fenton activity (loss of blue color, brown precipitate) [1, 6]: little to no Fenton activity

O=C1O[C@H]([C@@H](O)CO)C([O-])=C1O.[Na+] [ascorbate, sodium ascorbate, reference compound]
A600 (X. campestris; no preincubation, addition 5 mM ascorbate): 0.512
